Assay results: the supplement of paper PMC10627819

How the values were obtained:
[1] = test system: S. pneumoniae D39V; assay: fitness (endpoint OD595 vs no drug) (fraction); higher = more growth
How it was run: (§1)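 Growth medium was TSB, LB Lennox or CY, and plates were kept at 37 °C. Inoculation was at OD595 0.01 in 384-well plates, at 30 µl per well or 55 µl for S. pneumoniae. OD595 was monitored every 30 min for 14 h and background-subtracted using the first reading. Fitness is the optical density on entering stationary phase divided by the robust mean of no-drug controls, with values capped at 1.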

[2] = test system: B. subtilis 168; assay: as above
How it was run: as §1

[3] = test system: S. aureus Newman; assay: Bliss interaction score (quartile over a dose matrix) (fitness difference); higher = more antagonism (negative = synergy)
How it was run: (§2)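 Fitness is OD595 at stationary-phase entry relative to the plate's robust no-drug mean, capped at 1. Single-drug fitness was inferred from combinations. The Bliss score is observed minus product-expected fitness, summarised by quartiles over technical, biological and donor/recipient replicates.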

[4] = test system: S. aureus DSM 20231; assay: as above
How it was run: as §2

[5] = test system: S. pneumoniae D39V; assay: as above
How it was run: as §2

[6] = test system: B. subtilis 168; assay: as above
How it was run: as §2
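Throughout, for Bliss interaction score (quartile over a dose matrix): first quartile when negative (synergy) and third quartile when positive (antagonism).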

CCCCCCCCCC(=O)N[C@@H](Cc1c[nH]c2ccccc12)C(=O)N[C@H](CC(N)=O)C(=O)N[C@@H](CC(=O)O)C(=O)N[C@@H]1C(=O)NCC(=O)N[C@@H](CCCN)C(=O)N[C@@H](CC(=O)O)C(=O)N[C@H](C)C(=O)N[C@@H](CC(=O)O)C(=O)NCC(=O)N[C@H](CO)C(=O)N[C@@H]([C@H](C)CC(=O)O)C(=O)N[C@@H](CC(=O)c2ccccc2N)C(=O)O[C@@H]1C [Daptomycin] + CCC(C)C1C(=O)NC(=C)C(=O)NC(C(=O)NC(CSCC(C(=O)N1)NC(=O)/C(=C/C)/NC(=O)C(C(C)CC)N)C(=O)NC2C(SCC(NC(=O)CNC(=O)C3CCCN3C2=O)C(=O)NC(CCCCN)C(=O)NC4C(SCC(NC(=O)CNC(=O)C(NC(=O)C(NC(=O)C(NC(=O)CNC4=O)C)CC(C)C)CCSC)C(=O)NC(CC(=O)N)C(=O)NC(CCSC)C(=O)NC(CCCCN)C(=O)NC5C(SCC6C(=O)NC(C(=O)NC(CSC(C(C(=O)N6)NC(=O)C(NC5=O)C)C)C(=O)NC(CO)C(=O)NC(C(C)CC)C(=O)NC(CC7=CN=CN7)C(=O)NC(C(C)C)C(=O)NC(=C)C(=O)NC(CCCCN)C(=O)O)CC8=CN=CN8)C)C)C)CC(C)C [Nisin]
fitness, main component drawn
Conditions | partner 0.4275 µg/mL | partner 0.5 µg/mL | partner 0.855 µg/mL | partner 1 µg/mL | partner 1.6 µg/mL | partner 1.71 µg/mL | partner 2 µg/mL | partner 3.2 µg/mL | partner 6.4 µg/mL
[1], first compound 1 µg/mL | 0.995 | – | 0.874 | – | 0.022 | 0.0748 | – | 0.0226 | 0.0257
[1], first compound 2 µg/mL | 0.98 | – | 0.905 | – | 0.0316 | 0.077 | – | 0.0221 | 0.013
[1], first compound 4 µg/mL | 0.95 | – | 0.796 | – | 0.0215 | 0.0872 | – | 0.0303 | 0.0068
[2], first compound 0.25 µg/mL | – | 0.863 | – | 0.788 | – | – | 0.58 | – | –
[2], first compound 0.5 µg/mL | – | 0.828 | – | 0.794 | – | – | 0.595 | – | –

fitness, [2], one replicate, main component drawn
Conditions | first compound 0.125 µg/mL | first compound 0.25 µg/mL | first compound 0.5 µg/mL | first compound 1 µg/mL
partner 0.5 µg/mL | 0.829 | – | – | 0.726
partner 1 µg/mL | 0.873 | – | – | 0.676
partner 1.25 µg/mL | 0.963 | 0.933 | ≥ 1 | –
partner 1.6 µg/mL | 0.788 | 0.654 | 0.797 | –
partner 2 µg/mL | 0.439 | – | – | 0.451
partner 2.5 µg/mL | 0.234 | 0.593 | 0.601 | –
partner 3.2 µg/mL | 0.0337 | 0.0148 | 0.0344 | –
partner 4 µg/mL | 0.212 | 0.0372 | 0.0568 | –
partner 5 µg/mL | 0.077 | 0.0364 | 0.0223 | –
partner 6.4 µg/mL | 0.0443 | 0.039 | 0.026 | –
partner 8 µg/mL | 0.0734 | 0.157 | 0.0959 | –
partner 16 µg/mL | 0.0313 | 0.1 | 0.0497 | –

main component drawn
Conditions | Bliss interaction score
[3] | 0.0445
[4] | 0.209
[5] | -0.0492
[6] | 0.0676

C[C@H]1COc2c(N3CCN(C)CC3)c(F)cc3c(=O)c(C(=O)O)cn1c23 [Levofloxacin] + CN[C@@H]1[C@H](O[C@H]2[C@H](O[C@H]3[C@H](O)[C@@H](O)[C@H](N=C(N)N)[C@@H](O)[C@@H]3N=C(N)N)O[C@@H](C)[C@]2(O)C=O)O[C@@H](CO)[C@H](O)[C@H]1O [Streptomycin]
fitness
Conditions | partner 2 µg/mL | partner 4 µg/mL | partner 8 µg/mL
[1], first compound 0.1725 µg/mL | 0.942 | 0.923 | 0.927
[1], first compound 0.2 µg/mL | – | 0.9 | 0.798
[1], first compound 0.345 µg/mL | 0.817 | 0.812 | 0.788
[1], first compound 0.4 µg/mL | – | 0.806 | 0.704
[1], first compound 0.69 µg/mL | 0.316 | 0.422 | 0.445
[1], first compound 0.8 µg/mL | – | 0.307 | 0.293
[2], first compound 0.0312 µg/mL | 0.0408 | 0.0413 | 0.0242
[2], first compound 0.0625 µg/mL | 0.0475 | 0.0546 | 0.033
[2], first compound 0.125 µg/mL | 0.0446 | 0.0475 | 0.0333

fitness, one replicate
Conditions | first compound 0.001 µg/mL | first compound 0.002 µg/mL | first compound 0.0039 µg/mL | first compound 0.2 µg/mL | first compound 0.4 µg/mL | first compound 0.8 µg/mL
[1], partner 2 µg/mL | – | – | – | 0.955 | 0.855 | 0.346
[1], partner 16 µg/mL | – | – | – | 0.718 | 0.602 | 0.208
[2], partner 2 µg/mL | 0.963 | 0.952 | 0.932 | – | – | –
[2], partner 4 µg/mL | ≥ 1 | 0.737 | 0.832 | – | – | –
[2], partner 8 µg/mL | 0.252 | 0.0282 | 0.047 | – | – | –

Conditions | Bliss interaction score
[3] | 0.0694
[4] | -0.0487
[5] | -0.0992
[6] | 0.0365

CN(C)C(=O)C(CCN1CCC(O)(c2ccc(Cl)cc2)CC1)(c1ccccc1)c1ccccc1 [Loperamide] + CN[C@@H]1[C@H](O[C@H]2[C@H](O[C@H]3[C@H](O)[C@@H](O)[C@H](N=C(N)N)[C@@H](O)[C@@H]3N=C(N)N)O[C@@H](C)[C@]2(O)C=O)O[C@@H](CO)[C@H](O)[C@H]1O [Streptomycin]
fitness
Conditions | partner 2 µg/mL | partner 4 µg/mL | partner 8 µg/mL
[1], first compound 17.14 µg/mL | 0.941 | 0.98 | 0.961
[1], first compound 20 µg/mL | – | ≥ 1 | 0.987
[1], first compound 34.28 µg/mL | 0.948 | 0.992 | 0.967
[1], first compound 40 µg/mL | – | 0.997 | ≥ 1
[2], first compound 25 µg/mL | 0.643 | 0.106 | 0.0172
[2], first compound 50 µg/mL | 0.0768 | 0.0399 | 0.019
[2], first compound 100 µg/mL | 0.0865 | 0.0369 | 0.0223

fitness, [1], one replicate
Conditions | first compound 20 µg/mL | first compound 40 µg/mL | first compound 68.57 µg/mL | first compound 80 µg/mL
partner 2 µg/mL | ≥ 1 | ≥ 1 | 0.871 | 0.86
partner 4 µg/mL | – | – | 0.973 | –
partner 8 µg/mL | – | – | 0.966 | –
partner 16 µg/mL | 0.918 | 0.931 | – | 0.107

Conditions | Bliss interaction score
[3] | 0.0869
[4] | -0.236
[5] | 0.125
[6] | -0.0818

C[C@H]1COc2c(N3CCN(C)CC3)c(F)cc3c(=O)c(C(=O)O)cn1c23 [Levofloxacin] + CN1C2=CC=CC=C2N=C3C1=CC=CC3=O [Pyocyanin]
fitness
Conditions | first compound 0.0312 µg/mL | first compound 0.0625 µg/mL | first compound 0.125 µg/mL | first compound 0.1725 µg/mL | first compound 0.345 µg/mL | first compound 0.69 µg/mL
[1], partner 0.325 µg/mL | – | – | – | 0.988 | 0.936 | 0.668
[1], partner 0.65 µg/mL | – | – | – | 0.958 | 0.896 | 0.596
[1], partner 1.3 µg/mL | – | – | – | 0.782 | 0.74 | 0.459
[2], partner 1.25 µg/mL | 0.0394 | 0.0289 | 0.03 | – | – | –
[2], partner 2.5 µg/mL | 0.0377 | 0.0408 | 0.0364 | – | – | –
[2], partner 5 µg/mL | 0.0364 | 0.0433 | 0.0258 | – | – | –

fitness, one replicate
Conditions | first compound 0.001 µg/mL | first compound 0.002 µg/mL | first compound 0.0039 µg/mL | first compound 0.2 µg/mL | first compound 0.4 µg/mL | first compound 0.8 µg/mL
[1], partner 0.325 µg/mL | – | – | – | 0.878 | 0.371 | 0.296
[1], partner 0.65 µg/mL | – | – | – | 0.965 | 0.875 | 0.679
[2], partner 1.25 µg/mL | 0.891 | 0.8 | 0.846 | – | – | –
[2], partner 2.5 µg/mL | 0.864 | 0.813 | 0.795 | – | – | –
[2], partner 5 µg/mL | 0.68 | 0.621 | 0.64 | – | – | –

Conditions | Bliss interaction score
[3] | -0.0335
[4] | 0.0335
[5] | 0.0846
[6] | -0.0161
